US20240415878A1, “Compositions and Methods for Modulating Mitochondrial Function” (Board of Regents, The University of Texas System, priority 2021, published 2024)
pIC50: −log10 of the molar value.

Assays:
[1] = target: T1, MCU (Homo sapiens, UniProt Q8NE86); assay: MCU-mediated mCa2+ uptake in permeabilized cells (spectrofluorometry); assay type: cell-based; conditions: permeabilized cells (HeLa, 10 μM per FIG. 10H legend)
T1 construct: endogenous in cells; host or cells: HeLa cells, permeabilized
T1 sequence (Q8NE86 51-351): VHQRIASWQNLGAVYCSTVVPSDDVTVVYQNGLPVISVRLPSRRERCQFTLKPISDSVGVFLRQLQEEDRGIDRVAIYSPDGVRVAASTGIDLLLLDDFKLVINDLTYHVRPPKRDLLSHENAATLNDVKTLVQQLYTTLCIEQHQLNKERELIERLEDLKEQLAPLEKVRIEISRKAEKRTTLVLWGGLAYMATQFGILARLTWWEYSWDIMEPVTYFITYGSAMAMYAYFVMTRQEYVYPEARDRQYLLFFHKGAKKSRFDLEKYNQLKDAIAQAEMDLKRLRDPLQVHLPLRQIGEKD
T1 sequence (Q9H4I9 48-107 partner limits assumed): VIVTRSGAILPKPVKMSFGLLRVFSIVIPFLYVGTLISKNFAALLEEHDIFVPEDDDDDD
Method: Bacterial CorA forms a pentameric complex that selectively drives Mg2+ uptake in an electrogenic manner. […] Mrs2 is the eukaryotic homologue of CorA and contains two transmembrane domains with a well-conserved F/Y-G-M-N motif; therefore, CorA blockers were tested to determine if they alter Mrs2-mediated mMg^2+ uptake (Moomaw and Maguire, 2008). Digitonin permeabilized hepatocytes were utilized to measure the inhibitory effect and determine its IC50. Permeabilized cells were treated with CPACC followed by a 1 mM bolus of MgCl2 (FIG. 10B). A 1 mM Mg^2+ bolus was added after baseline recording, and the extramitochondrial Mg^2+ clearance was used as a read-out for Mrs2-mediated mMg^2+ uptake using Mag-Green as a Mg^2+ indicator. […] We next investigated Mrs2 inhibition in intact hepatocytes loaded with Mag-Green-AM. […] Next CPACC was examined to determine if it had any effect on MCU-mediated mCa^2+ uptake in permeabilized cells. […] The availability of the compound to intact cells was measured using graphite furnace atomic absorption spectroscopy (GFAAS) and bicinchoninic acid in parallel.
Spectrofluorimetric measurement of mitochondrial Mg^2+ and Ca^2+ dynamics and citrate mediated MagGreen fluorescence quenching. Fluorescence measurements were conducted in a multiwavelength excitation dual wavelength emission spectrofluorometer (Delta RAM, PTI, HORIBA). […]

[2] = target: Bacterial CorA (Salmonella typhimurium, UniProt P0A2R8); conditions: Kucharski et al., 2000, read-out: IC50 for CorA inhibition; cited from earlier work
Chain of Bacterial CorA (P0A2R8 whole entry): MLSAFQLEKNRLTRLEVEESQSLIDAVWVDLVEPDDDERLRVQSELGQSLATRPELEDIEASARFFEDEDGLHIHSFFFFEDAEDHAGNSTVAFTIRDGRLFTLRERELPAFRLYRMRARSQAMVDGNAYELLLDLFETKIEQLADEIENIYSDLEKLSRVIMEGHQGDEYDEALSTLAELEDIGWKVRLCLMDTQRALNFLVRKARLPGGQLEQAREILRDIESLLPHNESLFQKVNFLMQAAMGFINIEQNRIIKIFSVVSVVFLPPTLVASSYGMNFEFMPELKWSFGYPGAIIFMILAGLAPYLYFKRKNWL

## [NH2][Co]([NH2])([NH2])([NH2])([NH2])[Cl] [CPACC, chloropentaammine cobalt (III) chloride]
[1]
  MCU-mediated mCa^2+ uptake: did not inhibit
[2]
  pIC50: ~4.00
